Results as given in US4432984A, “Anti-hypertensive benzodioxan derivatives” (Bouchara; Emile, priority 1981, dated 1984).
Where a name gives a salt, the structure may show the parent alone.

Legend:
[1] = system: central nervous system; assay: Effects on the central nervous system in mice; assay type: in vivo; conditions: oral, same dosages which induce an anti-hypertensive activity in rats
From the text: Such central effects may be directly related to the hypotensive action.

[2] = Acute toxicity in mice by the oral route; conditions: mouse, in vivo, per os, read-out: Approximate lethal dose 50 (LD50)
Protocol: Toxicity was determined in mice by the oral route.

SMILES	aggressiveness [1]	experimentally-induced sleep [1]	sedation [1]	LD50 [2] [mg/kg]
O=C(c1ccc(F)cc1)C1CCN(CC2COc3ccccc3O2)CC1 (centres unmarked) [Example 2, 1-[(2,3-Dihydro-4H-1,4-benzodioxin)-2-ylmethyl]-4-(4-fluorobenzoyl)piperidine hydrochloride]	a decrease of the aggressiveness	a potentiation of the experimentally-induced sleep	a state of sedation	495 to 655
O=C(Oc1ccc(C(=O)C2CCN(CC3COc4ccccc4O3)CC2)cc1)c1cccnc1 (centres unmarked) [Example 8, 1-[(2,3-Dihydro-4H-1,4-benzodioxin)-2-ylmethyl]-4-(4-hydroxybenzoyl)piperidine nicotinate]	–	–	–	> 3200
